Reference: patent US10375962B2, “Heterocycle derivatives as pesticides” (BAYER CROPSCIENCE AKTIENGESELLSCHAFT, priority 2016, dated 2019)
Blank lines part the entries; values can stand above or below the compound they belong to.

What was measured:
[1] = log P by HPLC on a reversed-phase column (C 18), EEC Directive 79/831 Annex V.A8; assay type: physicochemical
Text: Called log P (HCOOH) in the table.
Called log P (neutral) in the table.

[2] = test system: unfed adult cat fleas (Ctenocephalides felis); assay: Ctenocephalides felis - oral test; assay type: in vivo; settings: application rate 100 ppm in citrated cattle blood; after 2 days
Protocol: (§1) Solvent: dimethyl sulphoxide
For the purpose of production of a suitable active compound formulation, 10 mg of active compound are mixed with 0.5 ml of dimethyl sulphoxide. Dilution with citrated cattle blood gives the desired concentration.
About 20 unfed adult cat fleas (Ctenocephalides felis) are placed into a chamber which is closed at the top and bottom with gauze. A metal cylinder whose bottom end is closed with parafilm is placed onto the chamber. The cylinder contains the blood/active compound formulation, which can be imbibed by the fleas through the parafilm membrane.
After 2 days, the kill in % is determined. 100% means that all of the fleas have been killed; 0% means that none of the fleas have been killed.

[3] = test system: L1 larvae of the Australian sheep blowfly (Lucilia cuprina); assay: Lucilia cuprina test; assay type: in vivo; settings: application rate 100 ppm; after 2 days
Protocol: as §1
(§2) To produce a suitable active compound formulation, 10 mg of active compound are mixed with 0.5 ml of dimethyl sulphoxide, and the concentrate is diluted with water to the desired concentration.
About 20 L1 larvae of the Australian sheep blowfly (Lucilia cuprina) are transferred into a test vessel containing minced horsemeat and the active compound formulation of the desired concentration.
After 2 days, the kill in % is determined. 100% means that all the larvae have been killed; 0% means that no larvae have been killed.

[4] = test system: southern root-knot nematode (Meloidogyne incognita); assay: Meloidogyne incognita test; assay type: in vivo; settings: application rate 20 ppm; lettuce; after 14 days
Protocol: Solvent: 125.0 parts by weight of acetone
To produce a suitable preparation of active compound, 1 part by weight of active compound is mixed with the stated amount of solvent and the concentrate is diluted with water to the desired concentration.
Vessels are filled with sand, active compound solution, an […] suspension of the southern root-knot nematode (Meloidogyne incognita) and lettuce seeds. The lettuce seeds germinate and the plants develop. The galls develop on the roots.
After 14 days, the nematicidal efficacy in % is determined by the formation of galls. 100% means that no galls were found; 0% means that the number of galls on the treated plants corresponds to the untreated control.

[5] = test system: larvae of the mustard beetle (Phaedon cochleariae); assay: Phaedon cochleariae - spray test; assay type: in vivo; settings: after 7 days
Protocol: Solvent: 78.0 parts by weight of acetone • • 1.5 parts by weight of dimethylformamide
(§3) Emulsifier: alkylaryl polyglycol ether
(§4) To produce a suitable active compound formulation, 1 part by weight of active compound is dissolved with the stated parts by weight of solvent and made up with water containing an emulsifier concentration of 1000 ppm until the desired concentration is attained. To produce further test concentrations, the formulation is diluted with emulsifier-containing water.
Discs of Chinese cabbage leaves (Brassica pekinensis) are sprayed with an active compound formulation of the desired concentration and, after drying, populated with larvae of the mustard beetle (Phaedon cochleariae).
After 7 days, the efficacy in % is determined. 100% means that all the beetle larvae have been killed and 0% means that none of the beetle larvae have been killed.

[6] = test system: caterpillars of the armyworm (Spodoptera frugiperda); assay: Spodoptera frugiperda - spray test; assay type: in vivo; settings: maize leaf discs, after 7 days
Protocol: Solvent: 78.0 parts by weight of acetone • • 1.5 parts by weight of dimethylformamide Emulsifier: alkylaryl polyglycol ether […] To produce further test concentrations, the formulation is diluted with emulsifier-containing water. Leaf discs of maize (Zea mays) are sprayed with an active compound preparation of the desired concentration and, after drying, populated with caterpillars of the armyworm (Spodoptera frugiperda).

[7] = test system: engorged adult female cattle ticks (Boophilus microplus); assay: Boophilus microplus - injection test; assay type: in vivo; settings: application rate 20 μg/animal, after 7 days
Protocol: as §1
To produce a suitable active compound formulation, 10 mg of active compound are mixed with 0.5 ml of solvent and the concentrate is diluted with solvent to the desired concentration.
1 μl of the active compound solution is injected into the abdomen of 5 engorged adult female cattle ticks (Boophilus microplus). The animals are transferred into dishes and kept in a climate-controlled room.
Efficacy is assessed after 7 days by laying of fertile eggs. Eggs which are not visibly fertile are stored in a climate-controlled cabinet until the larvae hatch after about 42 days. An efficacy of 100% means that none of the ticks has laid any fertile eggs; 0% means that all the eggs are fertile.

[8] = test system: adult houseflies (Musca domestica); assay: Musca domestica test; assay type: in vivo; settings: application rate 100 ppm; after 2 days
Protocol: as §1, §2
Vessels containing a sponge treated with sugar solution and the active compound formulation of the desired concentration are populated with 10 adult houseflies (Musca domestica).
After 2 days, the kill in % is determined. 100% means that all of the flies have been killed; 0% means that none of the flies have been killed.

[9] = test system: adult cat fleas (Ctenocephalides felis); assay: Ctenocephalides felis - in vitro contact tests with adult cat fleas; assay type: in vivo; settings: application rate 5 μg/cm^2; after 48 h
Protocol: For the coating of the test tubes, 9 mg of active compound are first dissolved in 1 ml of acetone p.a. and then diluted to the desired concentration with acetone p.a. 250 μl of the solution are distributed homogeneously on the inner walls and the base of a 25 ml test tube by turning and rocking on an orbital shaker (rocking rotation at 30 rpm for 2 h). With 900 ppm of active compound solution and internal surface area 44.7 cm^2, given homogeneous distribution, an area-based dose of 5 μg/cm^2 is achieved.
After the solvent has evaporated off, the tubes are populated with 5-10 adult cat fleas (Ctenocephalides felis), sealed with a perforated plastic lid and incubated in a horizontal position at room temperature and ambient humidity. After 48 h, efficacy is determined. To this end, the test tubes are stood upright and the fleas are knocked to the base of the tube. Fleas which remain motionless at the base or move in an uncoordinated manner are considered to be dead or moribund.
100% efficacy means that all the fleas were dead or moribund. 0% efficacy means that no fleas were harmed.

[10] = test system: green peach aphid (Myzus persicae); assay: Myzus persicae spray test (bell pepper plants); assay type: in vivo; settings: application rate 20 ppm, after 6 days
Protocol: Solvent: 14 parts by weight of dimethylformamide
as §3
as §4, with “water. If the addition of ammonium salts or/and penetrants is required, these are each added in a concentration of 1000 ppm to the formulation solution.” for “water.”
Bell pepper plants (Capsicum annuum) severely infested with the green peach aphid (Myzus persicae) are treated by spraying with the active compound formulation in the desired concentration.
After 6 days, the kill in % is determined. 100% means that all of the aphids have been killed; 0% means that none of the aphids have been killed.

[11] = test system: green peach aphid (Myzus persicae); assay: Myzus persicae - spray test (Chinese cabbage leaf discs); assay type: in vivo; settings: after 5 days
Protocol: Solvent: 78 parts by weight of acetone • • 1.5 parts by weight of dimethylformamide Emulsifier: alkylaryl polyglycol ether
as §4
Discs of Chinese cabbage leaves (Brassica pekinensis) infested by all stages of the green peach aphid (Myzus persicae) are sprayed with an active compound formulation of the desired concentration.
After 5 days, the efficacy in % is determined. 100% means that all the aphids have been killed and 0% means that none of the aphids have been killed.

SMILES: CCS(=O)(=O)c1ccc(-n2ncc3c(Cl)cccc32)nc1-c1nc2cc(C(F)(F)F)ncc2n1C [Example I-10]
LOGP_HCOOH (log P (HCOOH)) ([1]; acidic range, pH 2.7, 0.1% aqueous formic acid/acetonitrile, 55° C.): 4.27
LOGP_NEUTRAL (log P (neutral)) ([1]; neutral range, pH 7.8, 0.001 molar aqueous ammonium hydrogencarbonate/acetonitrile, 55° C.): 4.24
efficacy (laying of fertile eggs) [7]: 80%
efficacy (kill) [3]: 100%
efficacy (kill) [8]: 100%
efficacy ([5]; application rate 100 g/ha): 100%
efficacy ([5]; application rate 500 g/ha): 100%
efficacy ([6]; application rate 100 g/ha): 100%
efficacy ([6]; application rate 500 g/ha): 100%

SMILES: CCS(=O)(=O)c1ccc(N2Cc3ccc(Cl)cc3C2)nc1-c1nc2cc(C(F)(F)F)ncc2n1C [Example I-18]
LOGP_HCOOH (log P (HCOOH)) ([1]; pH 2.7): 4.03
LOGP_NEUTRAL (log P (neutral)) ([1]; pH 7.8): 3.99
efficacy (fleas dead or moribund) [9]: 100%
efficacy (kill) [2]: 100%
efficacy (kill) [3]: 100%
efficacy (kill) [8]: 80%
efficacy ([5]; application rate 100 g/ha): 100%
efficacy ([5]; application rate 500 g/ha): 100%
efficacy ([6]; application rate 100 g/ha): 100%
efficacy ([6]; application rate 500 g/ha): 100%
efficacy (kill) [10]: 98%

SMILES: CCS(=O)(=O)c1ccc(-n2ccc3cc(Cl)cnc32)nc1-c1nc2cc(C(F)(F)F)ncc2n1C [Example I-27]
LOGP_HCOOH (log P (HCOOH)) ([1]; pH 2.7): 4.41
LOGP_NEUTRAL (log P (neutral)) ([1]; pH 7.8): 4.39
nematicidal efficacy (formation of galls) [4]: 100%
efficacy ([5]; application rate 100 g/ha): 100%
efficacy ([5]; application rate 500 g/ha): 100%
efficacy ([6]; application rate 100 g/ha): 100%
efficacy ([6]; application rate 500 g/ha): 100%

SMILES: CCS(=O)(=O)c1ccc(-n2ncc3cccnc32)nc1-c1nc2cc(C(F)(F)F)ncc2n1C [Example I-6]
LOGP_HCOOH (log P (HCOOH)) ([1]; pH 2.7): 2.67
LOGP_NEUTRAL (log P (neutral)) ([1]; pH 7.8): 2.63
efficacy (fleas dead or moribund) [9]: 100%
efficacy (laying of fertile eggs) [7]: 90%
efficacy (kill) [2]: 90%
efficacy (kill) [3]: 100%
efficacy (kill) [8]: 100%
efficacy ([11]; application rate 100 g/ha): 100%
efficacy ([11]; application rate 500 g/ha): 100%
efficacy ([5]; application rate 100 g/ha): 100%
efficacy ([5]; application rate 500 g/ha): 100%
efficacy ([6]; application rate 100 g/ha): 100%
efficacy ([6]; application rate 500 g/ha): 100%

Further lines, with some results ahead:

LOGP_HCOOH (log P (HCOOH)) ([1]; pH 2.7): 3.13
LOGP_NEUTRAL (log P (neutral)) ([1]; pH 7.8): 3.05
SMILES: CCS(=O)(=O)c1ccc(-n2ccc3ncc(Cl)cc32)nc1-c1nc2cc(C(F)(F)F)ncc2n1C [Example I-28]
efficacy (kill) [2]: 80%
efficacy (kill) [3]: 100%
nematicidal efficacy (formation of galls) [4]: 90%
efficacy ([5]; application rate 100 g/ha): 100%
efficacy ([5]; application rate 500 g/ha): 100%
efficacy ([6]; application rate 500 g/ha): 100%

LOGP_HCOOH (log P (HCOOH)) ([1]; pH 2.7): 2.70
LOGP_NEUTRAL (log P (neutral)) ([1]; pH 7.8): 2.72
SMILES: CCS(=O)(=O)c1ccc(-n2nc3cccc(Br)n3c2=O)nc1-c1nc2cc(C(F)(F)F)ncc2n1C [Example I-36]
nematicidal efficacy (formation of galls) [4]: 100%
